Experiments:
IL-17A/F = target: T1, IL-17A/F (Homo sapiens, UniProt Q16552+Q96PD4); assay: IL-17A/F HEK-Blue cell assay (SEAP reporter); format: cell-based; conditions: HEK-Blue IL-17A reporter cells, IL17A/F 5 ng/mL, 20 hours, SEAP read at A630; read-out: HEK-Blue IL17AF (IC50 for IL-17A/F inhibition)
T1 construct: purchased R&D Systems
T1 sequence (Q16552 24-155): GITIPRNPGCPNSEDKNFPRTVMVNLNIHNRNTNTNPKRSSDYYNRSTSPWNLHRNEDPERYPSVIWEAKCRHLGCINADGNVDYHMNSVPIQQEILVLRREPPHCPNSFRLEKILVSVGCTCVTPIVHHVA
T1 sequence (Q96PD4 31-163): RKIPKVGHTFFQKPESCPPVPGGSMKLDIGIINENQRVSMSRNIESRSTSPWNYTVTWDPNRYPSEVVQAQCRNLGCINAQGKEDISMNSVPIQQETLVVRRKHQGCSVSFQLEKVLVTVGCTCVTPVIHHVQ

IL-17A/A = target: T2, IL-17A/A (Homo sapiens, UniProt Q16552); assay: IL-17A/A HEK-Blue cell assay (SEAP reporter); format: cell-based; conditions: HEK-Blue IL-17A reporter cells, IL17A/A 5 ng/mL, 20 hours, SEAP read at A630; read-out: HEK-Blue IL17AA (IC50 for IL-17A/A inhibition)
T2 construct: purchased Genscript Z03228
T2 sequence (Q16552 24-155): T1 sequence (Q16552 24-155)

Row | SMILES | IC50 (IL-17A/F) [nM] | IC50 (IL-17A/A) [nM]
1 | CCn1nccc1C(=O)N[C@H](c1cn2nc(C[C@H]3C[C@@H](C(F)(F)F)CNC3=O)c(CN3CCCC3C)nc2n1)C1CCC(F)(F)CC1 (stereo partly drawn) [Compound 343, N-((1S)-(4,4-difluorocyclohexyl)(3-((2-methylpyrrolidin-1-yl)methyl)-2-(((3R,5R)-2-oxo-5-(trifluoromethyl)piperidin-3-yl)methyl)imidazo[1,2-b][1,2,4]triazin-6-yl)methyl)-1-ethyl-1H-pyrazole-5-carboxamide] | > 1000 | < 100
2 | CCn1nccc1C(=O)N[C@H](c1cn2nc(C[C@H]3C[C@@H](C(F)(F)F)CNC3=O)c(CN3CCC4(CC4)C3)nc2n1)C1CCC(F)(F)CC1 [Compound 344, N—((S)-(3-((5-azaspiro[2.4]heptan-5-yl)methyl)-2-(((3R,5R)-2-oxo-5-(trifluoromethyl)piperidin-3-yl)methyl)imidazo[1,2-b][1,2,4]triazin-6-yl)(4,4-difluorocyclohexyl)methyl)-1-ethyl-1H-pyrazole-5-carboxamide] | > 1000 | 100 to 1000
3 | CCn1nccc1C(=O)N[C@H](c1cn2nc(C[C@H]3C[C@@H](C(F)(F)F)CNC3=O)c(CN3CCC(F)(F)CC3)nc2n1)C1CCC(F)(F)CC1 [Compound 345, N—((S)-(4,4-difluorocyclohexyl)(3-((4,4-difluoropiperidin-1-yl)methyl)-2-(((3R,5R)-2-oxo-5-(trifluoromethyl)piperidin-3-yl)methyl)imidazo[1,2-b][1,2,4]triazin-6-yl)methyl)-1-ethyl-1H-pyrazole-5-carboxamide] | > 1000 | < 100
4 | CCn1nccc1C(=O)N[C@H](c1cn2nc(C[C@H]3C[C@@H](C(F)(F)F)CNC3=O)c(CN3CCC4(CC3)CC4)nc2n1)C1CCC(F)(F)CC1 [Compound 346, N—((S)-(3-((6-azaspiro[2.5]octan-6-yl)methyl)-2-(((3R,5R)-2-oxo-5-(trifluoromethyl)piperidin-3-yl)methyl)imidazo[1,2-b][1,2,4]triazin-6-yl)(4,4-difluorocyclohexyl)methyl)-1-ethyl-1H-pyrazole-5-carboxamide] | > 1000 | < 100
5 | CCn1nccc1C(=O)N[C@H](c1cn2nc(C[C@H]3C[C@@H](C(F)(F)F)CNC3=O)c(CN3CCCC4(CC4)C3)nc2n1)C1CCC(F)(F)CC1 [Compound 347, N—((S)-(3-((5-azaspiro[2.5]octan-5-yl)methyl)-2-(((3R,5R)-2-oxo-5-(trifluoromethyl)piperidin-3-yl)methyl)imidazo[1,2-b][1,2,4]triazin-6-yl)(4,4-difluorocyclohexyl)methyl)-1-ethyl-1H-pyrazole-5-carboxamide] | > 1000 | < 100
6 | CCn1nccc1C(=O)N[C@H](c1cn2nc(C[C@H]3C[C@@H](C(F)(F)F)CNC3=O)c(CN3CCOC(C)C3)nc2n1)C1CCC(F)(F)CC1 (stereo partly drawn) [Compound 349, N-((1S)-(4,4-difluorocyclohexyl)(3-((2-methylmorpholino)methyl)-2-(((3R,5R)-2-oxo-5-(trifluoromethyl)piperidin-3-yl)methyl)imidazo[1,2-b][1,2,4]triazin-6-yl)methyl)-1-ethyl-1H-pyrazole-5-carboxamide] | > 1000 | < 100
7 | CCn1nccc1C(=O)N[C@H](c1cn2nc(C[C@H]3C[C@@H](C(F)(F)F)CNC3=O)c(CN3CCOC(C)(C)C3)nc2n1)C1CCC(F)(F)CC1 [Compound 351, N—((S)-(4,4-difluorocyclohexyl)(3-((2,2-dimethylmorpholino)methyl)-2-(((3R,5R)-2-oxo-5-(trifluoromethyl)piperidin-3-yl)methyl)imidazo[1,2-b][1,2,4]triazin-6-yl)methyl)-1-ethyl-1H-pyrazole-5-carboxamide] | > 1000 | < 100
8 | CCn1nccc1C(=O)N[C@H](c1cn2nc(C[C@H]3C[C@@H](C(F)(F)F)CNC3=O)c(CN3CCN(CC(F)(F)F)C(=O)C3)nc2n1)C1CCC(F)(F)CC1 [Compound 352, N—((S)-(4,4-difluorocyclohexyl)(3-((3-oxo-4-(2,2,2-trifluoroethyl)piperazin-1-yl)methyl)-2-(((3R,5R)-2-oxo-5-(trifluoromethyl)piperidin-3-yl)methyl)imidazo[1,2-b][1,2,4]triazin-6-yl)methyl)-1-ethyl-1H-pyrazole-5-carboxamide] | > 1000 | 100 to 1000
9 | CCn1nccc1C(=O)N[C@H](c1cn2nc(C[C@H]3C[C@@H](C(F)(F)F)CNC3=O)c(C3COCCN3)nc2n1)C1CCC(F)(F)CC1 (stereo partly drawn) [Compound 353, N-((1S)-(4,4-difluorocyclohexyl)(3-(morpholin-3-yl)-2-(((3R,5R)-2-oxo-5-(trifluoromethyl)piperidin-3-yl)methyl)imidazo[1,2-b][1,2,4]triazin-6-yl)methyl)-1-ethyl-1H-pyrazole-5-carboxamide] | > 1000 | < 100
10 | CCn1nccc1C(=O)N[C@H](c1cn2nc(C[C@H]3C[C@@H](C(F)(F)F)CNC3=O)c(C3CCOC4(C3)CN(C)C4)nc2n1)C1CCC(F)(F)CC1 (stereo partly drawn) [Compound 354, N-((1S)-(4,4-difluorocyclohexyl)(3-(2-methyl-5-oxa-2-azaspiro[3.5]nonan-8-yl)-2-(((3R,5R)-2-oxo-5-(trifluoromethyl)piperidin-3-yl)methyl)imidazo[1,2-b][1,2,4]triazin-6-yl)methyl)-1-ethyl-1H-pyrazole-5-carboxamide] | > 1000 | 100 to 1000
11 | CCn1nccc1C(=O)N[C@H](c1cn2nc(C[C@H]3C[C@@H](C(F)(F)F)CNC3=O)c(C3COC4(C3)CN(C)C4)nc2n1)C1CCC(F)(F)CC1 (stereo partly drawn) [Compound 355, N-((1S)-(4,4-difluorocyclohexyl)(3-(2-methyl-5-oxa-2-azaspiro[3.4]octan-7-yl)-2-(((3R,5R)-2-oxo-5-(trifluoromethyl)piperidin-3-yl)methyl)imidazo[1,2-b][1,2,4]triazin-6-yl)methyl)-1-ethyl-1H-pyrazole-5-carboxamide] | > 1000 | 100 to 1000

Next, values leading:

Row | IC50 (IL-17A/F) [nM] | IC50 (IL-17A/A) [nM] | SMILES
12 | > 1000 | 100 to 1000 | CCn1nccc1C(=O)N[C@H](c1cn2nc(C[C@H]3C[C@@H](C(F)(F)F)CNC3=O)c(CN3CC4(CC4)C3)nc2n1)C1CCC(F)(F)CC1 [Compound 339, N—((S)-(3-((5-azaspiro[2.3]hexan-5-yl)methyl)-2-(((3R,5R)-2-oxo-5-(trifluoromethyl)piperidin-3-yl)methyl)imidazo[1,2-b][1,2,4]triazin-6-yl)(4,4-difluorocyclohexyl)methyl)-1-ethyl-1H-pyrazole-5-carboxamide]
13 | > 1000 | < 100 | CCn1nccc1C(=O)N[C@H](c1cn2nc(C[C@H]3C[C@@H](C(F)(F)F)CNC3=O)c(CN3CC4(C3)CC(F)(F)C4)nc2n1)C1CCC(F)(F)CC1 [Compound 340, N—((S)-(3-((6,6-difluoro-2-azaspiro[3.3]heptan-2-yl)methyl)-2-(((3R,5R)-2-oxo-5-(trifluoromethyl)piperidin-3-yl)methyl)imidazo[1,2-b][1,2,4]triazin-6-yl)(4,4-difluorocyclohexyl)methyl)-1-ethyl-1H-pyrazole-5-carboxamide]
14 | > 1000 | < 100 | CCn1nccc1C(=O)N[C@H](c1cn2nc(C[C@H]3C[C@@H](C(F)(F)F)CNC3=O)c(CN3CC4(C3)CC(O)(C(F)(F)F)C4)nc2n1)C1CCC(F)(F)CC1 [Compound 341, N—((S)-(4,4-difluorocyclohexyl)(3-((6-hydroxy-6-(trifluoromethyl)-2-azaspiro[3.3]heptan-2-yl)methyl)-2-(((3R,5R)-2-oxo-5-(trifluoromethyl)piperidin-3-yl)methyl)imidazo[1,2-b][1,2,4]triazin-6-yl)methyl)-1-ethyl-1H-pyrazole-5-carboxamide]
15 | > 1000 | 100 to 1000 | CCn1nccc1C(=O)N[C@H](c1cn2nc(C[C@H]3C[C@@H](C(F)(F)F)CNC3=O)c(CN3CCC(C)(C)C3)nc2n1)C1CCC(F)(F)CC1 [Compound 342, N—((S)-(4,4-difluorocyclohexyl)(3-((3,3-dimethylpyrrolidin-1-yl)methyl)-2-(((3R,5R)-2-oxo-5-(trifluoromethyl)piperidin-3-yl)methyl)imidazo[1,2-b][1,2,4]triazin-6-yl)methyl)-1-ethyl-1H-pyrazole-5-carboxamide]
16 | 100 to 1000 | < 100 | CCn1nccc1C(=O)N[C@H](c1cn2nc(C[C@H]3C[C@@H](C(F)(F)F)CNC3=O)c(CN3CC4CC(C3)C4(F)F)nc2n1)C1CCC(F)(F)CC1 [Compound 348, N-((1S)-(3-((6,6-difluoro-3-azabicyclo[3.1.1]heptan-3-yl)methyl)-2-(((3R,5R)-2-oxo-5-(trifluoromethyl)piperidin-3-yl)methyl)imidazo[1,2-b][1,2,4]triazin-6-yl)(4,4-difluorocyclohexyl)methyl)-1-ethyl-1H-pyrazole-5-carboxamide]
17 | 100 to 1000 | < 100 | CCn1nccc1C(=O)N[C@H](c1cn2nc(C[C@H]3C[C@@H](C(F)(F)F)CNC3=O)c(CN(C)C3CC3)nc2n1)C1CCC(F)(F)CC1 [Compound 356, N—((S)-(3-((cyclopropyl(methyl)amino)methyl)-2-(((3R,5R)-2-oxo-5-(trifluoromethyl)piperidin-3-yl)methyl)imidazo[1,2-b][1,2,4]triazin-6-yl)(4,4-difluorocyclohexyl)methyl)-1-ethyl-1H-pyrazole-5-carboxamide]

Source: patent US20260226068A1, “IMIDAZOTRIAZINE IL-17A MODULATORS AND USES THEREOF” (DICE ALPHA, INC., priority 2023, published 2026)
